Legend:
[1] = Metabolic stability in dog liver microsomes; type: in vitro ADME; settings: 1 μmol/L
Experimental: The oxidative metabolism of THY1773 was evaluated in rat and dog liver microsomes. THY1773 (1 μmol/L) was incubated with pooled liver microsomes (0.25 mg protein/ml) in sodium–potassium phosphate buffer (pH 7.4) consisting of 100 mmol/L sodium phosphate, 100 mmol/L potassium chloride, 2.5 mmol/L magnesium chloride (MgCl2), 1.5 mmol/L glucose‐6‐phosphate (G‐6‐P), and 0.18 units/ml G‐6‐P dehydrogenase (G‐6‐PDH). The reactions were initiated by the addition of β‐nicotinamide–adenine dinucleotide phosphate, oxidized form (NADP^+, 0.16 mmol/L), and incubated for 10, 20, 30, 40, 50, and 60 min. […] The intrinsic clearance (CLint) was calculated by the substrate depletion method described by Naritomi et al. (2001).
Since the CLliver was underestimated in rats and dogs from CLint in liver microsomes, the ratio of observed in vivo CLint and predicted CLint was calculated as the empirical scaling factor (ESF) for the extrapolation of CLliver from in vitro data. […] The total plasma clearance (CLtotal) was calculated by Equation (4): (4) CLtotal=QH×fu×(CLint/fu,mic)/QH+(fu/Rb)×(CLint/fu,mic)+CLrenal where QH is hepatic blood flow, fu is the free fraction in plasma, fu,mic is the fraction unbound in HLMs, Rb is blood‐to‐plasma ratio, and CLrenal is renal clearance. The fu,mic value was calculated using the Simcyp population based simulator (Version 16 R1; Simcyp Ltd.). […]

[2] = CLint in human liver microsomes (reaction phenotyping, no inhibitor); type: in vitro ADME; settings: HLMs
Experimental: Reaction phenotyping using cDNA expressed recombinant human CYP isoforms, CYP1A2, CYP2B6, CYP2C8, CYP2C9, CYP2C19, CYP2D6, and CYP3A4, was conducted. Each recombinant enzyme (100 pmol/ml) in potassium phosphate buffer (pH 7.4; 100 mmol/L for CYP3A4, 50 mmol/L for the others) was preincubated with [^3H]THY1773 (10 μmol/L) at 37°C for 5 min. The reactions were initiated by the addition of NADPH‐generating system (1 mmol/L NADP^+, 5 mmol/L G‐6‐P, 1 unit/ml G‐6‐PDH, and 5 mmol/L MgCl2) and incubated for 0 or 60 min. The reactions were terminated by the addition of an equal volume of acetonitrile/methanol (9:1, vol/vol), followed by centrifugation at 1650 × g for 10 min at 4°C. An aliquot of the supernatant was subjected to an Agilent 1200 HPLC system (Agilent Technologies, Inc.) equipped with a radiochemical flow detector (Radiomatic 625TR; Perkin Elmer, Inc.), and formation of metabolites was evaluated. […] The CLint was calculated by the method as described previously under metabolic stability in animal liver microsomes, and the fraction metabolized (fm) was calculated by Equation (1): (1) fm=1−(CLint, with inh/CLint) where CLint is intrinsic clearance without specific inhibitor and CLint,with inh is intrinsic clearance in the presence of specific inhibitor.

[3] = target: T1, rat anterior pituitary membrane V1B receptor (Rattus norvegicus, UniProt P48974); test: In vitro binding, rat anterior pituitary membrane V1B receptor; settings: unpublished data
T1 construct: rat anterior pituitary membrane V1B receptor; from tissue; host or cells: rat anterior pituitary membranes
T1 sequence (P48974 1-425): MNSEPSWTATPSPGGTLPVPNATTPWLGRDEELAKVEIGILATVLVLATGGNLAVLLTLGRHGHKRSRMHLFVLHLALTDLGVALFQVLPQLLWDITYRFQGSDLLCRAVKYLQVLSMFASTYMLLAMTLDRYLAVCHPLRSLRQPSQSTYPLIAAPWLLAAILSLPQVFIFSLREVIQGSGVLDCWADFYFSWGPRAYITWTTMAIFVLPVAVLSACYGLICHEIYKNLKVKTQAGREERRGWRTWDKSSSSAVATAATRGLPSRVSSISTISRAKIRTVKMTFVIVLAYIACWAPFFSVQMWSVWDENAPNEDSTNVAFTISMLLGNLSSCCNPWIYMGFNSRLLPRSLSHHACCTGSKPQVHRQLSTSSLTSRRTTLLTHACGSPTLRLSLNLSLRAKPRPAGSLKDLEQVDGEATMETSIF

plasma ACTH = tested on: plasma ACTH; design: method as in Kamiya et al., 2020; settings: rats, oral, doses with >50% V1B occupancy; ref Kamiya et al., 2020; cited from earlier work

CC(C)NC(=O)Cn1c(-c2cccc(Cl)c2)nn(-c2ccc(CCN3CCOCC3)cc2)c1=O [THY1773]
CLint in liver microsomes [1]: 32.2 μL/min/mg protein | CLint ([2]; 500 nmol/L, no inhibitor): 11.2 ± 0.898 µL/min/mg | CLint (PBPK input, Model 1) ([2]; experimental data): 11.2 (Model 1) μl/min/mg protein | Ki [3]: 80.1 nM | Effect on increase in plasma ACTH induced by CRF/desmopressin challenge (plasma ACTH): significantly inhibited
